{"source": "paper PMC10305115", "about": "“Development of a Minimalistic Physiologically Based Pharmacokinetic (mPBPK) Model for the Preclinical Development of Spectinamide Antibiotics” (Pharmaceutics, 2023)", "key": {"[1]": {"conditions": "cited from earlier work; for AUCinf Liver Observed / AUCinf Lung Observed / AUCinf Observed / AUCinf Spleen Observed: healthy mice; for AUCinf Observed: plasma"}, "[2]": {"test": "Plasma protein binding by equilibrium dialysis (RED device), rat plasma", "format": "in vitro ADME, Sprague-Dawley rats", "conditions": "Sprague-Dawley, 0.5 and 5 mg/L, 37 °C, read-out: fuPlasma fraction unbound in plasma", "description": "(§1) Plasma protein binding was measured by equilibrium dialysis using a RED device (8 kDa molecular cutoff; Thermo Scientific, Rockford, IL, USA) containing plasma and buffer chambers for dialysis and a base plate. Two concentrations (0.5 and 5 mg/L) of 1599 and 1810 were prepared in mouse plasma from BALB/c mice and rat plasma from Sprague-Dawley rats, and an aliquot of 300 µL was added in the plasma chamber in duplicate. A 500 µL aliquot of PBS was added in the buffer chamber for dialysis. Then, the base plate was covered with sealing tape and incubated at 37 °C at approximately 100 rpm on an orbital shaker for 4 h to achieve equilibrium. After incubation, 50 µL of each sample was pipetted from the plasma and buffer chambers into separate micro-centrifuge tubes. A total of 50 µL of plasma was added to the buffer samples and an equal volume of PBS to the collected plasma samples and vortexed. Samples were processed by protein precipitation and analyzed for bound and unbound drug concentrations by liquid chromatography-tandem mass spectrometry (LC-MS/MS). Ranitidine (0.5 and 5 mg/L) was included as a positive control. The fraction of compound unbound to plasma proteins (fu) was calculated from the measured concentrations in the plasma and buffer chambers using the following equation:(1) fu=1−C(Plasma Chamber)−C(Buffer Chamber)/C(Plasma Chamber)"}, "[3]": {"test": "Pharmacokinetic studies in healthy rats", "format": "in vivo", "conditions": "male, Sprague-Dawley, rat, plasma, IV SD 10 mg/kg, generated in this study, read-out: AUCinf Observed", "description": "Urine samples were collected at predetermined time intervals (0–6, 6–10, 10–24, 24–48 h) up to 48 h after dosing, volumes were recorded, and samples were processed by protein precipitation and analyzed by LC-MS/MS. The fraction of drug excreted unchanged (fe) in urine at each time interval and a cumulative fe were calculated.\nAn additional single dose intravenous study of spectinamide 1599 with destructive sampling was performed to obtain the tissue PK profiles in rats. In this study, groups of four rats (two male and two female) were euthanized either at 15 min or at 4 h after dosing, and blood, lung, liver, spleen, and kidneys were collected. For tissue samples, the tissues were weighed and homogenized in four volumes of phosphate buffered saline (1× PBS) and stored at −70 °C until LC-MS/MS analysis.\nSample preparation was performed by protein precipitation using methanol. […]\nAn API 4500 triple quadruple mass spectrometer (Applied Biosystems, Foster City, CA, USA) equipped with a turbospray ion source was operated in the positive ion mode. Selected reaction monitoring using precursor→product ion combinations of m/z 487.2→207.1, 418→207.1, and 365.1→333.2 was used for quantification of spectinamides 1599, 1810 and the IS spectinomycin, respectively."}, "[4]": {"test": "Minimalistic PBPK model, mouse (fitting and simulation)"}, "[5]": {"test": "Parallel artificial membrane permeability assay (PAMPA)", "format": "in vitro ADME", "conditions": "passive permeability could not be determined"}, "[6]": {"test": "Integrated mouse and rat PBPK model, inter-animal variability", "conditions": "Intravenous Estimate (%RSE); simultaneous fit of mouse and rat plasma and tissue data"}, "plasma proteins": {"test_system": "plasma proteins", "test": "Plasma protein binding by equilibrium dialysis (RED device), mouse plasma", "format": "in vitro ADME, BALB/c mice", "conditions": "mouse and rat", "description": "as §1"}, "[7]": {"test": "Plasma protein binding by equilibrium dialysis (RED device), mouse plasma", "format": "in vitro ADME, BALB/c mice", "conditions": "BALB/c; Mouse plasma, 0.5 and 5 mg/L, 37 °C, 4 h; read-out: fuPlasma fraction unbound in plasma", "description": "as §1"}, "[8]": {"test": "Subcutaneous PBPK model predictions vs observed plasma concentrations in Mtb infected mice", "format": "in vivo, BALB/c mice", "conditions": "SC dose-ranging and dose-fractionation studies"}, "[9]": {"test": "Fraction unbound in epithelial lining fluid calculated by Poulin and Theil equation, mouse", "conditions": "epithelial lining fluid (calculated), calculated from fu in plasma and albumin ratio plasma/ELF, read-out: fuELF fraction unbound in epithelial lining fluid", "description": "(§2) For intravenous administration, the bolus dose was assumed to be mixed instantaneously into the venous blood. For subcutaneous administration, the dose was administered as an external compartment, absorbed into the venous compartment via a first-order absorption rate constant and a bioavailability component. For intrapulmonary aerosol administration, we have modified the lung tissue by adding the epithelial lining fluid (ELF) sub-compartment, as shown in Figure 2. The physiological volume of the ELF sub-compartment was obtained from the literature. The dose was administered as an external compartment, absorbed into the ELF compartment via a first-order absorption rate constant and a bioavailability component. The compound was assumed to be bound to the ELF proteins, and only the unbound fraction was distributed to the other sub-compartments of the lungs and ultimately to the systemic circulation. The fraction unbound in ELF was calculated from the fraction unbound in plasma and the albumin ratio between plasma and ELF using the equation described by Poulin and Theil."}, "in vivo": {"test": "in vivo", "conditions": "mouse"}, "[10]": {"test": "Fraction unbound in epithelial lining fluid calculated by Poulin and Theil equation, rat", "conditions": "epithelial lining fluid (calculated), calculated from fu in plasma and albumin ratio plasma/ELF, read-out: fuELF fraction unbound in epithelial lining fluid", "description": "as §2"}, "[11]": {"conditions": "Intravenous Estimate (%RSE), model fitted to IV single dose 10 mg/kg plasma and tissue data"}}, "note": "Where two headings read alike, the source gives them in different places."}
{"smiles": "CN[C@@H]1[C@H](O)[C@H](NC)[C@H]2O[C@]3(O)[C@H](O[C@@H]2[C@H]1O)O[C@H](C)C[C@H]3NC(=O)Cc1ccc(O)cn1", "note": "[Spectinamide 1810, 2-(5-hydroxypyridin-2-yl)-N-((2R,4R,4aS,5aR,6S,7S,8R,9S,9aR,10aS)-4a,7,9-trihydroxy-2-methyl-6,8-bis(methylamino)decahydro-2H-benzo[b]pyrano [2,3-e] [1,4]dioxin-4-yl)acetamide]", "values": [{"measurement": "dose dependency of disposition", "setting": "[1]; dose range of 10 to 400 mg/kg in mice", "value": "did not suggest any dose dependencies"}, {"measurement": "AUCinf Liver Observed", "setting": "[1]; IV QD5 10 mg/kg", "value": 51.2, "unit": "µg·h/g"}, {"measurement": "AUCinf Liver Observed", "setting": "[1]; IV SD 10 mg/kg", "value": 31.6, "unit": "µg·h/g"}, {"measurement": "AUCinf Lung Observed", "setting": "[1]; IV QD5 10 mg/kg", "value": 11.2, "unit": "µg·h/g"}, {"measurement": "AUCinf Lung Observed", "setting": "[1]; IV SD 10 mg/kg", "value": 5.75, "unit": "µg·h/g"}, {"measurement": "AUCinf Observed", "setting": "[1]; IV QD5 10 mg/kg", "value": 9450, "unit": "ng·h/mL"}, {"measurement": "AUCinf Observed", "setting": "[1]; IV SD 10 mg/kg", "value": 7910, "unit": "ng·h/mL"}, {"measurement": "AUCinf Observed", "setting": "[1]; SC QD5 50 mg/kg", "value": 65500, "unit": "ng·h/mL"}, {"measurement": "AUCinf Observed", "setting": "[1]; SC QD5 200 mg/kg", "value": 265000, "unit": "ng·h/mL"}, {"measurement": "AUCinf Observed", "setting": "[1]; SC SD 46 mg/kg", "value": 38600, "unit": "ng·h/mL"}, {"measurement": "AUCinf Observed", "setting": "[1]; SC SD 50 mg/kg", "value": 67900, "unit": "ng·h/mL"}, {"measurement": "AUCinf Observed", "setting": "[1]; SC SD 200 mg/kg", "value": 267000, "unit": "ng·h/mL"}, {"measurement": "AUCinf Spleen Observed", "setting": "[1]; IV QD5 10 mg/kg", "value": 9.45, "unit": "µg·h/g"}, {"measurement": "AUCinf Spleen Observed", "setting": "[1]; IV SD 10 mg/kg", "value": 4.29, "unit": "µg·h/g"}, {"measurement": "fraction unbound at 4 h", "setting": "[2]", "value": 0.607}, {"measurement": "AUC(0-inf)", "setting": "[3]", "value": 20800, "unit": "ng·h/mL"}, {"measurement": "KC→IKidney 1st order back flux from cellular sub compartment of the kidney", "setting": "[4]; [11]", "value": "0.097 (45.1) 1/h"}, {"measurement": "KC→ILiver 1st order back flux from cellular sub compartment of the liver", "setting": "[4]; [11]", "value": "0.051 (17.2) 1/h"}, {"measurement": "KC→ILung 1st order back flux from cellular sub compartment of the lung", "setting": "[4]; [11]", "value": "0.076 (17.6) 1/h"}, {"measurement": "KC→ISpleen 1st order back flux from cellular sub compartment of the spleen", "setting": "[4]; [11]", "value": "0.013 (120) 1/h"}, {"measurement": "KC→Iothers 1st order back flux from cellular sub compartment of the other tissues", "setting": "[4]; [11]", "value": "7.0 × 10^−5 (0.00278) 1/h"}, {"measurement": "Ka 1st order absorption rate constant", "setting": "[4]; Subcutaneous Estimate (%RSE), healthy mice", "value": "8.26 (14.5)"}, {"measurement": "PAMPA concentrations in the acceptor compartment", "setting": "[5]", "value": "below the limit of detection"}, {"measurement": "ω KI→COther inter-animal variability on KI→COthers", "setting": "[6]", "value": "0.31 (14.7)"}, {"measurement": "plasma protein binding", "setting": "plasma proteins", "value": "low plasma protein binding"}, {"measurement": "fraction unbound at 4 h", "setting": "[7]", "value": 0.693}, {"measurement": "difference in pharmacokinetics between healthy and infected mice", "setting": "[8]", "value": "no significant difference"}, {"measurement": "fraction unbound", "setting": "[9]", "value": 0.965}, {"measurement": "half-life", "setting": "in vivo", "value": 5, "unit": "min"}, {"measurement": "bioavailability", "setting": "in vivo; sc", "value": 100, "unit": "%"}, {"measurement": "fraction unbound", "setting": "[10]", "value": 0.95}]}
